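Test compounds were applied to cells in 96-well plates for 48 hours at 5 doses. Here, GI50 denotes the concentration required for 50% inhibition of growth. TGI marks complete inhibition of growth.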
Tests used:
Assay in all cases: inhibition of tumour cell growth, NCI panel, 48 h
786-0 renal = test system: 786-0 renal
A498 renal = test system: A498 renal
A549 NSCLC = test system: A549 NSCLC
ACHN renal = test system: ACHN renal
BT-549 breast = test system: BT-549 breast
CAKI-1 renal = test system: CAKI-1 renal
CCRF-CEM leukemia = test system: CCRF-CEM leukemia
COLO 205 colon = test system: COLO 205 colon
DU-145 prostate = test system: DU-145 prostate
EKVX NSCLC = test system: EKVX NSCLC
HCC-2998 colon = test system: HCC-2998 colon
HCT-116 colon = test system: HCT-116 colon
HCT-15 colon = test system: HCT-15 colon
HL-60(TB) leukemia = test system: HL-60(TB) leukemia
HOP-62 NSCLC = test system: HOP-62 NSCLC
HOP-92 NSCLC = test system: HOP-92 NSCLC
HS 578T breast = test system: HS 578T breast
HT29 colon = test system: HT29 colon
IGROV1 ovarian = test system: IGROV1 ovarian
K-562 leukemia = test system: K-562 leukemia
KM12 colon = test system: KM12 colon
LOX IMVI melanoma = test system: LOX IMVI melanoma
MALME-3M melanoma = test system: MALME-3M melanoma
MCF7 breast = test system: MCF7 breast
MDA-MB-231 breast = test system: MDA-MB-231 breast
MDA-MB-435 = test system: MDA-MB-435
MOLT-4 leukemia = test system: MOLT-4 leukemia
NCI-H226 lung = test system: NCI-H226 lung
NCI-H23 lung = test system: NCI-H23 lung
NCI-H460 lung = test system: NCI-H460 lung
NCI-H522 lung = test system: NCI-H522 lung
NCI/ADR-RES ovarian = test system: NCI/ADR-RES ovarian
OVCAR-3 ovarian = test system: OVCAR-3 ovarian
OVCAR-4 ovarian = test system: OVCAR-4 ovarian
OVCAR-5 ovarian = test system: OVCAR-5 ovarian
OVCAR-8 ovarian = test system: OVCAR-8 ovarian
PC-3 prostate = test system: PC-3 prostate
RPMI-8226 leukemia = test system: RPMI-8226 leukemia
RXF 393 renal = test system: RXF 393 renal
SF-268 CNS = test system: SF-268 CNS
SF-295 CNS = test system: SF-295 CNS
SF-539 CNS = test system: SF-539 CNS
SK-MEL-2 melanoma = test system: SK-MEL-2 melanoma
SK-MEL-28 melanoma = test system: SK-MEL-28 melanoma
SK-MEL-5 melanoma = test system: SK-MEL-5 melanoma
SK-OV-3 ovarian = test system: SK-OV-3 ovarian
SN12C renal = test system: SN12C renal
SNB-19 CNS = test system: SNB-19 CNS
SNB-75 CNS = test system: SNB-75 CNS
SR leukemia = test system: SR leukemia
SW-620 colon = test system: SW-620 colon
T-47D breast = test system: T-47D breast
TK-10 renal = test system: TK-10 renal
U251 CNS = test system: U251 CNS
UACC-257 melanoma = test system: UACC-257 melanoma
UACC-62 melanoma = test system: UACC-62 melanoma
UO-31 renal = test system: UO-31 renal

SMILES: CCOC(=O)c1c(NC(=O)c2ccc(C(F)(F)F)cc2)sc2c(CN3CCN(C)CC3)c(O)ccc12
- GI50 (786-0 renal): 1550 nM
- TGI (786-0 renal): 3320 nM
- GI50 (A498 renal): 1630 nM
- TGI (A498 renal): 3300 nM
- GI50 (A549 NSCLC): 1850 nM
- TGI (A549 NSCLC): 3850 nM
- GI50 (ACHN renal): 1810 nM
- TGI (ACHN renal): 3210 nM
- GI50 (BT-549 breast): 1850 nM
- TGI (BT-549 breast): 4150 nM
- GI50 (CAKI-1 renal): 1650 nM
- TGI (CAKI-1 renal): 3160 nM
- GI50 (CCRF-CEM leukemia): 1950 nM
- TGI (CCRF-CEM leukemia): 4770 nM
- GI50 (COLO 205 colon): 1870 nM
- TGI (COLO 205 colon): 3760 nM
- GI50 (DU-145 prostate): 1970 nM
- TGI (DU-145 prostate): 3790 nM
- GI50 (EKVX NSCLC): 2620 nM
- TGI (EKVX NSCLC): 8150 nM
- GI50 (HCC-2998 colon): 1710 nM
- TGI (HCC-2998 colon): 3230 nM
- GI50 (HCT-116 colon): 1680 nM
- TGI (HCT-116 colon): 3340 nM
- GI50 (HCT-15 colon): 1740 nM
- TGI (HCT-15 colon): 3500 nM
- GI50 (HL-60(TB) leukemia): 1780 nM
- TGI (HL-60(TB) leukemia): 3940 nM
- GI50 (HOP-62 NSCLC): 1820 nM
- TGI (HOP-62 NSCLC): 3990 nM
- GI50 (HOP-92 NSCLC): 1360 nM
- TGI (HOP-92 NSCLC): 3110 nM
- GI50 (HS 578T breast): 1990 nM
- TGI (HS 578T breast): 4520 nM
- GI50 (HT29 colon): 1830 nM
- TGI (HT29 colon): 3680 nM
- GI50 (IGROV1 ovarian): 1790 nM
- TGI (IGROV1 ovarian): 3470 nM
- GI50 (K-562 leukemia): 1130 nM
- TGI (K-562 leukemia): 5860 nM
- GI50 (KM12 colon): 1790 nM
- TGI (KM12 colon): 3340 nM
- GI50 (LOX IMVI melanoma): 1780 nM
- TGI (LOX IMVI melanoma): 3190 nM
- GI50 (MALME-3M melanoma): 1990 nM
- TGI (MALME-3M melanoma): 4280 nM
- GI50 (MCF7 breast): 1820 nM
- TGI (MCF7 breast): 3650 nM
- GI50 (MDA-MB-231 breast): 1860 nM
- TGI (MDA-MB-231 breast): 3560 nM
- GI50 (MDA-MB-435): 1730 nM
- TGI (MDA-MB-435): 3120 nM
- GI50 (MOLT-4 leukemia): 1740 nM
- TGI (MOLT-4 leukemia): 4000 nM
- GI50 (NCI-H226 lung): 1950 nM
- TGI (NCI-H226 lung): 4070 nM
- GI50 (NCI-H23 lung): 2110 nM
- TGI (NCI-H23 lung): 4730 nM
- GI50 (NCI-H460 lung): 1770 nM
- TGI (NCI-H460 lung): 3380 nM
- GI50 (NCI-H522 lung): 2190 nM
- TGI (NCI-H522 lung): 5560 nM
- GI50 (NCI/ADR-RES ovarian): 1920 nM
- TGI (NCI/ADR-RES ovarian): 3830 nM
- GI50 (OVCAR-3 ovarian): 1750 nM
- TGI (OVCAR-3 ovarian): 3170 nM
- GI50 (OVCAR-4 ovarian): 2050 nM
- TGI (OVCAR-4 ovarian): 4430 nM
- GI50 (OVCAR-5 ovarian): 1770 nM
- TGI (OVCAR-5 ovarian): 3190 nM
- GI50 (OVCAR-8 ovarian): 2140 nM
- TGI (OVCAR-8 ovarian): 4770 nM
- GI50 (PC-3 prostate): 1690 nM
- TGI (PC-3 prostate): 3220 nM
- GI50 (RPMI-8226 leukemia): 1730 nM
- TGI (RPMI-8226 leukemia): 3950 nM
- GI50 (RXF 393 renal): 1590 nM
- TGI (RXF 393 renal): 3810 nM
- GI50 (SF-268 CNS): 1870 nM
- TGI (SF-268 CNS): 4010 nM
- GI50 (SF-295 CNS): 1940 nM
- TGI (SF-295 CNS): 3980 nM
- GI50 (SF-539 CNS): 1630 nM
- TGI (SF-539 CNS): 3020 nM
- GI50 (SK-MEL-2 melanoma): 2210 nM
- TGI (SK-MEL-2 melanoma): 5000 nM
- GI50 (SK-MEL-28 melanoma): 1730 nM
- TGI (SK-MEL-28 melanoma): 3160 nM
- GI50 (SK-MEL-5 melanoma): 3030 nM
- TGI (SK-MEL-5 melanoma): 10100 nM
- GI50 (SK-OV-3 ovarian): 1930 nM
- TGI (SK-OV-3 ovarian): 4210 nM
- GI50 (SN12C renal): 1760 nM
- TGI (SN12C renal): 3440 nM
- GI50 (SNB-19 CNS): 1790 nM
- TGI (SNB-19 CNS): 3480 nM
- GI50 (SNB-75 CNS): 2050 nM
- TGI (SNB-75 CNS): 4920 nM
- GI50 (SR leukemia): 1110 nM
- TGI (SR leukemia): 3420 nM
- GI50 (SW-620 colon): 1710 nM
- TGI (SW-620 colon): 3200 nM
- GI50 (T-47D breast): 1840 nM
- TGI (T-47D breast): 4540 nM
- GI50 (TK-10 renal): 1620 nM
- TGI (TK-10 renal): 3160 nM
- GI50 (U251 CNS): 1790 nM
- TGI (U251 CNS): 3370 nM
- GI50 (UACC-257 melanoma): 2120 nM
- TGI (UACC-257 melanoma): 4980 nM
- GI50 (UACC-62 melanoma): 1790 nM
- TGI (UACC-62 melanoma): 3590 nM
- GI50 (UO-31 renal): 1510 nM
- TGI (UO-31 renal): 2950 nM
